This note sets out measurements from ChEMBL document CHEMBL5038676, “Novel RIPK1 Inhibitors for Treating Neurodegenerative, Autoimmune, and Inflammatory Diseases” (ACS Med Chem Lett, 2022).

This assay deals with T1, Receptor-interacting serine/threonine-protein kinase 1 (Homo sapiens, UniProt Q13546).
T1 sequence (Q13546 whole entry): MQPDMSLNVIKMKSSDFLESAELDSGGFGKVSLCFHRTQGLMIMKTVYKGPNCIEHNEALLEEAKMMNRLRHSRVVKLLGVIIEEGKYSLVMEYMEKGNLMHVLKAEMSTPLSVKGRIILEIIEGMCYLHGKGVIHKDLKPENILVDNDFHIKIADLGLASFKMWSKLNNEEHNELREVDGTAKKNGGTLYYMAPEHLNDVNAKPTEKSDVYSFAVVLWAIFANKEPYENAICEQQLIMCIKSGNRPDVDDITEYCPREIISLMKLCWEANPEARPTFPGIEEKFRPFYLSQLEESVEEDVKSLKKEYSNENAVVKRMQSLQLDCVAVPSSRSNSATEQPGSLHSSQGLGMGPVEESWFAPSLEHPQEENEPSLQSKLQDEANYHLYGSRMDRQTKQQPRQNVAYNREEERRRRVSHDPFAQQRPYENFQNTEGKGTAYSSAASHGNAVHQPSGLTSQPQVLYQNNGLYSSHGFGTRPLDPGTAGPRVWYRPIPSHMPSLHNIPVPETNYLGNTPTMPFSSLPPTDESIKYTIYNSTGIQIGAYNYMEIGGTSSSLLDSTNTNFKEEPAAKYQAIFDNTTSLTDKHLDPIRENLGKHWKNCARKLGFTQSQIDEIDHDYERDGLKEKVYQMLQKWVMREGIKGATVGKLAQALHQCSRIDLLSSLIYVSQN
Description: Inhibition of recombinant N-terminal GST-tagged human RIPK1 (1 to 327 residues) expressed in baculovirus infected Sf9 insect cells preincubated for 40 mins followed by substrate addition and measured after 60 mins by ADP-glo luminescence assay.

By EC50 is commonly meant the concentration that produces a half-maximal response. In the case of `O=C(c1ccccc1)C1CN(C(=O)N2N=CC[C@H]2c2cc(F)cc(F)c2)C1`, the EC50 is 5.6 nM.

Take `O=C(N1CC(Sc2ccc(Br)cc2)C1)N1N=CC[C@H]1c1cc(F)cc(F)c1`: the EC50 was 5.9 nM.

In the case of `O=C(N1CC(Oc2ccccc2F)C1)N1N=CC[C@H]1c1cc(F)cc(F)c1`, the EC50 was determined as 3.1 nM.

As for `C[C@H]1[C@@H](Oc2ccc(F)cc2)CN1C(=O)N1N=CC[C@H]1c1ccc(Cl)cc1`, the EC50 was below 5.1 nM.

With `O=C(N1CC(Oc2ccccc2)C1)N1N=CC[C@H]1c1cc(F)cc(F)c1`, the EC50 worked out at 3.8 nM.
